Experimental data from patent US20240174674A1, “NITROGEN-CONTAINING POLYCYCLIC FUSED RING COMPOUND, PHARMACEUTICAL COMPOSITION THEREOF, PREPARATION METHOD THEREFOR, AND USE THEREOF” (APPLIED PHARMACEUTICAL SCIENCE, INC., priority 2021, published 2024).
Where two headings read alike, the source gives them in different places.

Molecular target: RET G810R (Homo sapiens (Human), UniProt P07949, G810R)
Assay: HTRF KinEASE-TK kinase activity test, RET G810R
Conditions: for inhibitory activity against RET G810R relative to that of selpercatinib (LOXO-292): fold versus selpercatinib (LOXO-292)
[1] = read-out: RET G810R IC50, HTRF kinase assay

RET G810R, sequence (P07949 29-1114 G810R): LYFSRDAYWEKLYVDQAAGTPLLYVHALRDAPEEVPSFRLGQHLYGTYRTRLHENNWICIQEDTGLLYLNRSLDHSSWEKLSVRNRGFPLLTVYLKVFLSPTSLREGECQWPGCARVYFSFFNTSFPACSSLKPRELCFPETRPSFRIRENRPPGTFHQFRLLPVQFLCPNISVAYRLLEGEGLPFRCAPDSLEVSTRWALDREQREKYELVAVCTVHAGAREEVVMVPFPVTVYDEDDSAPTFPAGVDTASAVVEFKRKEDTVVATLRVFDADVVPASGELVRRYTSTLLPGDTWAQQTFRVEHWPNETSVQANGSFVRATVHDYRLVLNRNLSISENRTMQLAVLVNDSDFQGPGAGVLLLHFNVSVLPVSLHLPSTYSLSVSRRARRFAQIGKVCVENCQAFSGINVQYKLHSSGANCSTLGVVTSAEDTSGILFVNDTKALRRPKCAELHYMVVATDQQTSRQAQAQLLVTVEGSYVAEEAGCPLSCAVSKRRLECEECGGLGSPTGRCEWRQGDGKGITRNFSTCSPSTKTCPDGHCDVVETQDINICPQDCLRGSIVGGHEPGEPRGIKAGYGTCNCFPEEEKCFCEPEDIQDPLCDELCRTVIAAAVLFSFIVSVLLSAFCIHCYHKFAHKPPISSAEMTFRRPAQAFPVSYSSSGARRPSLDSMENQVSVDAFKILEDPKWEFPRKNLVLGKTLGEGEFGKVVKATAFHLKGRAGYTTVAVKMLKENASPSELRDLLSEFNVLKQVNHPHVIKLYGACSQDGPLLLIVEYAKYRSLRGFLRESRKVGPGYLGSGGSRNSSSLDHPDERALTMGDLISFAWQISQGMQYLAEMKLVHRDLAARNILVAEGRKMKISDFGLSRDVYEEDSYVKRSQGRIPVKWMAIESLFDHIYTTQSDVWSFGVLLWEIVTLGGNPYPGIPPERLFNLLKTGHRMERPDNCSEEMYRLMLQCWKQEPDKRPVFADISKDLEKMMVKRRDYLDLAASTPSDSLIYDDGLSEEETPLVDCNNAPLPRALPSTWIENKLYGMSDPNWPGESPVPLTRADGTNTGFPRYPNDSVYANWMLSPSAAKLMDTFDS

| SMILES | IC50 [1] [nM] | inhibitory activity against RET G810R relative to that of selpercatinib (LOXO-292) [times] | IC50 [nM] |
| --- | --- | --- | --- |
| CCOc1cc(-c2ccc(N3CCN(Cc4ccc(OC)nc4)C(CN(C)C)C3)nc2)c2c3cn[nH]c3nn2c1 (stereo not drawn) [Compound 245, 1-(4-(5-(6-ethoxy-1H-pyrazolo[3′,4′:3,4]pyrazolo[1,5-α]pyridin-4-yl)pyridin-2-yl)-1-((6-methoxypyridin-3-yl)methylene)piperazin-2-yl)-N,N-dimethylmethanamine] | 20.8 | – | – |
| CCOc1cc(-c2ccc(N3CC[C@H](NC(=O)c4cc(F)ccc4Cl)[C@@H](O)C3)nc2)c2c3cn[nH]c3nn2c1 [Compound 43] | 1.9 | ≥ 10 | – |
| CCOc1cc(-c2ccc(N3CC[C@H](NC(=O)c4cc(F)ccc4C)[C@H](O)C3)nc2)c2c3cn[nH]c3nn2c1 [Compound 277, N-((3R,4S)-1-(5-(6-ethoxy-1H-pyrazolo[3′,4′:3,4]pyrazolo[1,5-α]pyridin-4-yl)pyridin-2-yl)-3-hydroxypiperidin-4-yl)-5-fluoro-2-methylbenzamide] | 1.2 | ≥ 10 | – |
| CCOc1cc(-c2ccc(N3C[C@@H]4[C@H](C3)[C@@H]4NCc3ccc(OC)nc3)nc2)c2c3cn[nH]c3nn2c1 [Compound 173] | 12.5 | – | – |
| CCOc1cc(-c2cnc(N3CC[C@H](NC(=O)c4cc(F)ccc4Cl)[C@@H](O)C3)cn2)c2c3cn[nH]c3nn2c1 [Compound 91] | 2.2 | ≥ 10 | – |
| CCOc1cc(-c2ccc(N3CC[C@H](NS(=O)(=O)c4c(F)cccc4F)[C@H](O)C3)nc2)c2c3cn[nH]c3nn2c1 [Compound 269, N-((3R,4S)-1-(5-(6-ethoxy-1H-pyrazolo[3′,4′:3,4]pyrazolo[1,5-α]pyridin-4-yl)pyridin-2-yl)-3-hydroxypiperidin-4-yl)-2,6-difluorobenzenesulfonamide] | 6.2 | ≥ 10 | – |
| CCOc1cc(-c2ccc(N3CC[C@H](NC(=O)C(C)C(C)C)[C@H](O)C3)nc2)c2c3cn[nH]c3nn2c1 (stereo partly drawn) [Compound 283, N-((3R,4S)-1-(5-(6-ethoxy-1H-pyrazolo[3′,4′:3,4]pyrazolo[1,5-α]pyridin-4-yl)pyridin-2-yl)-3-hydroxypiperidin-4-yl)-2,3-dimethylbutanamide] | 9.9 | – | – |
| CCOc1cc(-c2ccc(N3CCC(CN4CCOCC4)(NC(=O)CC(C)C)CC3)nc2)c2c3cn[nH]c3nn2c1 [Compound 29] | 8.8 | – | – |
| C#CCOc1cc(-c2ccc(N3CC4CC(C3)N4Cc3ccc(OC)nc3)nc2)c2c3cn[nH]c3nn2c1 [Compound 227, 4-(6-(6-((6-methoxypyridin-3-yl)methylene)-3,6-diazabicyclo[3.1.1]heptan-3-yl)pyridin-3-yl)-6-(prop-2-yn-1-yloxy)-1H-pyrazolo[3′,4′:3,4]pyrazolo[1,5-α]pyridine] | 4.01 | – | – |
| CCOc1cc(-c2ccc(N3CC[C@H](NC(=O)c4c(F)cccc4F)[C@H](O)C3)nc2)c2c3cn[nH]c3nn2c1 [Compound 233] | 0.96 | ≥ 10 | – |
| CCOc1cc(-c2ccc(N3CC[C@H](NC(=O)c4cc(F)ccc4Cl)[C@H](O)C3)nc2)c2c3cn[nH]c3nn2c1 [Compound 276, 2-chloro-N-((3R,4S)-1-(5-(6-ethoxy-1H-pyrazolo[3′,4′:3,4]pyrazolo[1,5-α]pyridin-4-yl)pyridin-2-yl)-3-hydroxypiperidin-4-yl)-5-fluorobenzamide] | 0.7 | ≥ 10 | – |
| CCOc1cc(-c2ccc(N3C[C@H]4C[C@H](NC(=O)c5c(F)cccc5Cl)C[C@H]4C3)nc2)c2c3cn[nH]c3nn2c1 [Compound 174] | 3.5 | ≥ 10 | – |
| CCOc1cc(-c2ccc(N3CCN(Cc4ccc(OC)nc4)C4(CC4)C3)nc2)c2c3cn[nH]c3nn2c1 [Compound 165, 6-ethoxy-4-(6-(4-((6-methoxypyridin-3-yl)methylene)-4,7-diazaspiro[2.5]octan-7-yl)pyridin-3-yl) -1H-pyrazolo[3′,4′:3,4]pyrazolo[1,5-α]pyridine] | 38.3 | – | – |
| CCOc1cc(-c2cnc(N3CCC(C)(NC(=O)c4ncccc4Cl)CC3)cn2)c2c3cn[nH]c3nn2c1 [Compound 59, 3-chloro-N-(1-(5-(6-ethoxy-1H-pyrazolo[3′,4′:3,4]pyrazolo[1,5-α]pyridin-4-yl)pyrazin-2-yl)-4-methylpiperidin-4-yl)-2-picolinamide] | – | – | 4.6 |
| CCOc1cc(-c2ccc(N3CC[C@H](NC(=O)c4c(F)cccc4Cl)[C@H](O)C3)nc2)c2c3cn[nH]c3nn2c1 [Compound 275, N-((3R,4S)-1-(5-(6-ethoxy-1H-pyrazolo[3′,4′:3,4]pyrazolo[1,5-α]pyridin-4-yl)pyridin-2-yl)-3-hydroxypiperidin-4-yl)-2-chloro-6-fluorobenzamide] | 0.8 | ≥ 10 | – |
| O=C(N[C@H]1CCN(c2ccc(-c3cc(OCC(F)F)cn4nc5[nH]ncc5c34)cn2)C[C@H]1O)c1cc(F)ccc1Cl [Compound 293, N-((3R,4S)-1-(5-(6-(2,2-difluoroethoxy)-1H-pyrazolo[3′,4′:3,4]pyrazolo[1,5-α]pyridin-4-yl)pyridin-2-yl)piperidin-3-hydroxypiperidin-4-yl)-2-chloro-5-fluorobenzamide] | 1.6 | ≥ 10 | – |
| CCOc1cc(-c2ccc(N3C[C@@H]4[C@H](C3)[C@@H]4NC(=O)c3c(F)cccc3Cl)nc2)c2c3cn[nH]c3nn2c1 [Compound 172, 2-chloro-N-((1R,5S,6R)-3-(5-(6-ethoxy-1H-pyrazolo[3′,4′:3,4]pyrazolo[1,5-α]pyridin-4-yl)pyridin-2-yl)-3-azabicyclo[3.1.0]hexan-6-yl)-6-fluorobenzamide] | 8.2 | – | – |
| CCOc1cc(-c2ccc(N3CC4CCC(C3)N4C(=O)c3c(F)cccc3Cl)nc2)c2c3cn[nH]c3nn2c1 [Compound 155, (2-chloro-6-fluoro)((1R,5S)-3-(5-(6-ethoxy-1H-pyrazolo[3′,4′:3,4]pyrazolo[1,5-α]pyridin-4-yl)pyridin-2-yl)-3,8-diazabicyclo[3.2.1]octan-8-yl)benzamide] | 14.2 | – | – |
| CCOc1cc(-c2ccc(N3CCC(CO)(NC(=O)c4cc(F)ccc4F)CC3)nc2)c2c3cn[nH]c3nn2c1 [Compound 291, N-(1-(5-(6-ethoxy-1H-pyrazolo[3′,4′:3,4]pyrazolo[1,5-α]pyridin-4-yl)pyridin-2-yl)-4-(hydroxymethyl)piperidin-4-yl)-2,5-difluorobenzamide] | 1.6 | ≥ 10 | – |
| CCOc1cc(-c2ccc(N3CCC4(CC3)CCN4C(=O)c3c(F)cccc3Cl)nc2)c2c3cn[nH]c3nn2c1 [Compound 201, N-(7-(5-(6-ethoxy-1H-pyrazolo[3′,4′:3,4]pyrazolo[1,5-α]pyridin-4-yl)pyridin-2-yl)-1,7-diazaspiro [3.5]nonan-1-yl)-2-chloro-6-fluorobenzamide] | 4.1 | – | – |
| CCOc1cc(-c2ccc(N3CC[C@H](NC(=O)C(C)C(C)C)[C@@H](O)C3)nc2)c2c3cn[nH]c3nn2c1 (some centres unmarked) [Compound 89] | 2 | ≥ 10 | – |
